From patent publication US12017994B2 (SYMBERIX, INC., priority 2017, dated 2024) come the findings set out here.

For experiment [1], the target named is Purified bacterial β-glucuronidases (Escherichia coli, UniProt P05804). The format is biochemical. Conditions: PNPG substrate, 5 nM enzyme. The source says: Successful drug candidate compounds were subjected to numerous biochemical and cellular assays. Purified bacterial β-glucuronidases were challenged with compounds to determine inhibition properties in a standard, robust activity assay, utilizing p-nitrophenyl glucuronide (PNPG) as the enzymatic substrate.

Experiment [2] concerns the target E. coli GUS (Escherichia coli (strain K12), UniProt P05804). The conditions noted are these: 30 minutes incubation, then NAD+ and UDH.
Text: Addition of UDH and nicotinamide adenine dinucleotide (NAD+) to a reaction solution containing free GA results in the catalysis of free GA to D-glucurate and the concomitant reduction of NAD+ to NADH. NADH can be detected photometrically by monitoring absorbance at 340 nm (FIG. 4).
Experiment [3] concerns β-glucuronidase activity in live, cultured bacterial cells. The experiment is described as follows: β-glucuronidase activity in live, cultured bacterial cells (PNPG substrate). The format is cell-based. The conditions noted are these: 2 hour incubation.
Experiment [4] deals with purified E. coli GUS (Escherichia coli (strain K12), UniProt P05804). Kind of experiment: PNPG-PNP GUS cleavage assay, purified E. coli GUS. The format is biochemical. Conditions: preincubation one minute to four hours.
Sequence of purified E. coli GUS (P05804 whole entry, looked up): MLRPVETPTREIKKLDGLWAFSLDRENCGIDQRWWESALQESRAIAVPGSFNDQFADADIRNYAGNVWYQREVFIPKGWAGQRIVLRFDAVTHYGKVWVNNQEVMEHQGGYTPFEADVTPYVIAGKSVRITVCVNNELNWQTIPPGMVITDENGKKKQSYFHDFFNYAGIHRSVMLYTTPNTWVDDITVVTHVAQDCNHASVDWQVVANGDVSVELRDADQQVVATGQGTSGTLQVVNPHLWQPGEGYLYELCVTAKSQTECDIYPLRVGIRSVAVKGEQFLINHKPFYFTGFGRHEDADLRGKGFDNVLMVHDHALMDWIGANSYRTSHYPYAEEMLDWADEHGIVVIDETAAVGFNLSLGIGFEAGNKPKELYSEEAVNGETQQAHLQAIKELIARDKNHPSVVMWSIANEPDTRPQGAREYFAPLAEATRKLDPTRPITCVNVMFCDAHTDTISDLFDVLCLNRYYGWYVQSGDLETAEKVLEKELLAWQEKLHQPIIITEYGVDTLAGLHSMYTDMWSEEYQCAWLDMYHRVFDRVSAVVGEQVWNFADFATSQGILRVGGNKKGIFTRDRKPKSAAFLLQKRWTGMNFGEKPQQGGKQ
Experiment [5] deals with GUS activity in live E. coli. Kind of experiment: PNPG-PNP GUS cleavage assay, live E. coli.
[6] abbreviates: parent compound, read-out: Cell Based Inhibition IC50 (nM) Parent.

Where “and” joins values, the source holds several entries; their conditions need not be identical. Identical values can stand only once. Entries after “also recorded” stand apart in the source; their conditions may differ. Like-named read-outs stand apart in the source and are kept apart here.

Sequence of E. coli GUS (P05804 whole entry, looked up): as above

What is called IC50 is the midpoint of a concentration-inhibition curve. In turn, `Cc1cccc(NC(=O)N(CCO)Cc2cc3cc(C)cc(C)c3[nH]c2=O)c1` [Ref #38′, 1-[(6,8-dimethyl-2-oxo-1H-quinolin-3-yl)methyl]-1-(2-hydroxyethyl)-3-(m-tolyl)urea] yielded an IC50 in experiment [1] of 1660 nM.

For `Cc1cc(C)c2[nH]c(=O)c(C(C)N(CCO)C(=O)Nc3ccccc3C(C)C)cc2c1` (stereo not shown) [Ref #29′, 1-[1-(6,8-dimethyl-2-oxo-1H-quinolin-3-yl)ethyl]-1-(2-hydroxyethyl)-3-(2-isopropylphenyl)urea], half-maximal inhibition in experiment [1] (IC50) was put at 6440 nM.

For the compound `Cc1cc(C)c2[nH]c(=O)c(CN(CCO)C(=O)Nc3cccnc3)cc2c1` [Ref #18′, 1-[(6,8-dimethyl-2-oxo-1H-quinolin-3-yl)methyl]-1-(2-hydroxyethyl)-3-(3-pyridyl)urea], the IC50 in experiment [1] was above 50000 nM.

Consider `C#Cc1cc(F)ccc1NC(=O)N(CCO)Cc1cc2cc(C)cc(C)c2[nH]c1=O` [Ref #45′, 1-[(6,8-dimethyl-2-oxo-1H-quinolin-3-yl)methyl]-3-(2-ethynyl-4-fluoro-phenyl)-1-(2-hydroxyethyl)urea], for which 1100 nM corresponded to half-maximal inhibition in experiment [1] (IC50).

Regarding “chenodeoxycholate-glucuronide [reference compound]”, the “free GA / NADH formation after incubation with E. coli GUS (cleavage by GUS)” value in experiment [2] is listed as “detected only for the positive control”.

In experiment [1], `Cc1cc(C)c2[nH]c(=O)c(C(C)N(CCO)C(=O)Nc3ccccc3C)cc2c1` (stereo not shown) [Ref #31′, 1-[1-(6,8-dimethyl-2-oxo-1H-quinolin-3-yl)ethyl]-1-(2-hydroxyethyl)-3-(o-tolyl)urea] had an IC50 above 50000 nM.

`Cc1cc(C)c2[nH]c(=O)c(CN(CCO)C(=O)Nc3cccc(C(C)C)c3)cc2c1` [Ref #41′, 1-[(6,8-dimethyl-2-oxo-1H-quinolin-3-yl)methyl]-1-(2-hydroxyethyl)-3-(3-isopropylphenyl)urea] returned an IC50 in experiment [1] of 6730 nM.

`COc1ccc(NC(=O)N(CCO)C(C)c2cc3cc(C)cc(C)c3[nH]c2=O)cc1` (stereo not shown) [Ref #34′, 1-[1-(6,8-dimethyl-2-oxo-1H-quinolin-3-yl)ethyl]-1-(2-hydroxyethyl)-3-(4-methoxyphenyl)urea]: the IC50 in experiment [1] is above 50000 nM.

Regarding `Cc1cc(C)c2[nH]c(=O)c(CN(CCO)C(=O)Nc3ccccc3-c3ccccc3)cc2c1` [Ref #14′, 1-[(6,8-dimethyl-2-oxo-1H-quinolin-3-yl)methyl]-1-(2-hydroxyethyl)-3-(2-phenylphenyl)urea], in experiment [1], the IC50 was 6160 nM and 6440 nM.

In experiment [1], `Cc1cc(C)c2[nH]c(=O)c(C(C)N(CCO)C(=O)Nc3ccc(F)cc3I)cc2c1` (stereo not shown) [Ref #30′, 1-[1-(6,8-dimethyl-2-oxo-1H-quinolin-3-yl)ethyl]-3-(4-fluoro-2-iodo-phenyl)-1-(2-hydroxyethyl)urea] displayed an IC50 of 13000 nM.

As for `CCOc1ccc(NC(=S)N(CCO[C@@H]2O[C@H](C(=O)O)[C@@H](O)[C@H](O)[C@H]2O)Cc2cc3cc(C)cc(C)c3[nH]c2=O)cc1` [Inh1-G], the half-maximal inhibitory concentration (IC50) in experiment [3] (glucuronide of the compound, read-out: Cell Based Inhibition IC50 (nM) Glucuronide) was 8.8 nM; in experiment [4], around 1000 nM; in experiment [5] (read-out: IC50 in live E. coli, after 4 hr incubation), 1 nM. Further, the “free GA / NADH formation after incubation with E. coli GUS (cleavage by GUS)” value in experiment [2] is listed as “No free GA was detected; also recorded: does not cleave”. In addition, the “increase in potency in live E. coli” value was “approximately 20 fold” in experiment [5] (1-min pre-incubation); around 100 fold in experiment [5] (2-hr pre-incubation); ~1000 fold and > 1000 fold in experiment [5] (4-hr pre-incubation).

Regarding `CCOc1ccc(NC(=S)N(CCO)Cc2cc3cc(C)cc(C)c3[nH]c2=O)cc1` [Inh1, reference compound], the IC50 in experiment [3] (setting [6]) worked out at 890 nM.

In the case of `CCOc1ccc(NC(=O)N(CCO)Cc2cc3cc(C)cc(C)c3[nH]c2=O)cc1`, the IC50 in experiment [3] (setting [6]) worked out at 890 nM.
